Laboratory results published in patent US20210087159A1, “TETRAHYDROCANNABINOLIC- CA[…] DERIVATIVES AND USES THEREOF” (AL&AM […]., priority 2018, published 2021).

Experiments:
Assay in all cases: CellTiter-Glo cell viability assay, cancer cell cytotoxicity/anti-proliferation panel (Chempartner)
Format in all cases: cell-based
[1] = test system: U-87 MG, brain glioblastoma; settings: for Inhibition: 72 hours, compounds 10 μM starting, STS 2 μM starting, 10-pt, 3-fold dilution; for IC50: Homo sapiens, 72 h, read-out: IC50 (absolute IC50)
[2] = test system: A549, lung carcinoma; settings: for Inhibition: A549, 72 hours, compounds 10 μM starting, STS 2 μM starting, 10-pt, 3-fold dilution; for IC50: Homo sapiens, A549, 72 h, read-out: IC50 (absolute IC50)
[3] = test system: SK-HEP-1, liver adenocarcinoma; settings: for IC50: Homo sapiens, SK-HEP1, 72 h, read-out: IC50 (absolute IC50); for Inhibition: SK-HEP-1, 72 hours, compounds 10 μM starting, STS 2 μM starting, 10-pt, 3-fold dilution
[4] = test system: OMP-2, multiple myeloma; settings: for IC50: 72 h, read-out: IC50 (absolute IC50); for Inhibition: OMP-2, 72 hours, compounds 10 μM starting, STS 2 μM starting, 10-pt, 3-fold dilution

SMILES | Inhibition [1] [%] | IC50 [1] [µM] | Inhibition [2] [%] | IC50 [2] [µM] | IC50 [3] [µM] | Inhibition [3] [%] | IC50 [4] [µM] | Inhibition [4] [%]
CCCCCc1cc2c(c(O)c1C(=O)NCCCN1CCOCC1)[C@@H]1C=C(C)CC[C@H]1C(C)(C)O2 [Ia9, (6aR,0aR)-1-hydroxy-6,6,9-trimethyl-N-(3-morpholinopropyl)-3-pentyl-6a,7,8,10a-tetrahydro-6H-benzo[c]chromene-2-carboxamide] | 19.84 | > 10 | 77.08 | 5.59 | 5.41 | 78.20 | 6.72 | 76.40
CCCCCc1cc2c(c(O)c1C(=O)O)[C@@H]1C=C(C)CC[C@H]1C(C)(C)O2 [THCA, tetrahydrocannabinolic acid, reference compound] | 10.52 | > 10 | 9.30 | > 10 | > 10 | 16.52 | > 10 | 5.94
CCCCCc1cc2c(c(O)c1C(=O)NCCN(C)C)[C@@H]1C=C(C)CC[C@H]1C(C)(C)O2 [Ia6, (6aR,0aR)—N-(2-(dimethylamino)ethyl)-1-hydroxy-6,6,9-trimethyl-3-pentyl-6a,7,8,10a-tetrahydro-6H-benzo[c]chromene-2-carboxamide] | 13.79 | > 10 | 66.67 | 7.34 | > 10 | 49.38 | > 10 | 47.73
